Measurements from US20150335615A1, “CHOLESTEROL-LOWERING COMPOUNDS IN COMBINATION WITH LIPID METABOLISM-ALTERING COMPOUNDS OF NON-ABSORBABLE SUGARS, COMPOUNDS THAT CONVERT NH3 TO NH4+, OR HYDROGEN-GENERATING COMPOUNDS FOR THE TREATMENT OF HIGH CHOLESTEROL AND INFLAMMATION” (priority 2013, published 2015).
Entries after “also recorded” stand apart in the source; their conditions may differ.

Legend:
[1] = H2 amount in mice after oral inulin; assay type: in vivo; details: oral administration
F. nucleatum = details: FIG. 4
Experimental: Incubate one of the periodontal bacteria for 4 hours with/without hydrogen and measure the hydrogen sulfide concentration.
Culture F. nucleatum (oral bacteria that produce H2S) overnight.
Incubate F. nucleatum in H2 or N2 condition for 4 hours.
Keep supernatant (3 ml) in 15 ml conical tube at 4° C.
Measure the H2S concentration in the conical tube (N=5, 1:10 dilution).

LDLR knockout mice [2] = experiment: Serum lipoproteins (HDL, LDL, Ox-LDL) in LDLR knockout mice on high fat diet (Example 3); assay type: in vivo
Experimental: Low density lipoprotein receptor (LDLR) knockout mice and their wild type (C57BL6/J), were purchased from Jackson Laboratories (Bar Harbor, Me., USA). Male LDLR knockout mice (9-w old male) received control standard diet (Picolab, MO, USA; diet #5053) or high fat diet (Tekland Custom Diet, WI, USA; diet #TD88137). The LDLR mice received high fat diet were further randomly divided into four groups; G1) 20 mg/kg day atorvastatin group, G2) 400 mg/day lactulose group, G3) combination group, and G4) negative control group (no atorvastatin or lactulose). Atorvastatin was supplemented in the diet and lactulose was administered by oral gavage, twice a day. Wild type mice were maintained on the standard diet. All mice were fed with above noted respective diet for 12 weeks and sacrificed for post mortal analyses. Blood was collected by heart puncture at left ventricular on the sacrificed mice, followed flushing the blood circulation with PBS, and the aorta and liver lobes were removed for laboratory evaluations. Blood was drawn from heart in the absence of anti-coagulant agents, and the serum was prepared. High-density lipoprotein cholesterol and low-density lipoprotein (LDL) cholesterol were determined by a commercial colorimetric assay (Sigma-Aldrich, MO, USA). Oxidative-LDL was measured by ELISA (Uscn Life Science, TX, USA).

LDLR knockout mice [3] = experiment: Liver histology, fatty liver development in LDLR knockout mice on high fat diet (Example 3); assay type: in vivo; details: LDLR-KO mice, high fat diet 12 weeks; lactulose 400 mg/day oral gavage; FIG. 7
Experimental: Low density lipoprotein receptor (LDLR) knockout mice and their wild type (C57BL6/J), were purchased from Jackson Laboratories (Bar Harbor, Me., USA). Male LDLR knockout mice (9-w old male) received control standard diet (Picolab, MO, USA; diet #5053) or high fat diet (Tekland Custom Diet, WI, USA; diet #TD88137). The LDLR mice received high fat diet were further randomly divided into four groups; G1) 20 mg/kg day atorvastatin group, G2) 400 mg/day lactulose group, G3) combination group, and G4) negative control group (no atorvastatin or lactulose). Atorvastatin was supplemented in the diet and lactulose was administered by oral gavage, twice a day. Wild type mice were maintained on the standard diet. All mice were fed with above noted respective diet for 12 weeks and sacrificed for post mortal analyses.
Blood was collected by heart puncture at left ventricular on the sacrificed mice, followed flushing the blood circulation with PBS, and the aorta and liver lobes were removed for laboratory evaluations.
Aortas and liver lobes were frozen in OCT compound (Sakura finetek, Japan).
Cryosections of aortas and liver lobes were stained with hematoxylin and eosin. Atherosclerosis legions were evaluated by Oil-Red 0 staining.

LDLR-KO mice [4] = experiment: Weight increase of LDLR-KO mice on western diet (Example 4); assay type: in vivo; details: western diet 12 weeks, atorvastatin 0.16% w/w in HFD, lactulose 3 g/kg/day oral, FIG. 9
Description: (§1) Animals: Homozygous LDL receptor knockout (LDLr−/−; C57BL/6) mice were purchased from the Jackson Laboratory (Bar Harbor, Me.). This genetically manipulated mouse strain is most commonly used for the pre-clinical study of high-fat diet induced hyperlipidemia and atherosclerosis. Nine weeks of age mice were separated into five groups (Groups #1-#5) and fed with normal diet (Group #1; Picolab, 5053) or high fat diet (Group #2-#5; HFD; Harlan Teklad, TD 88137) for 12 weeks. Atorvastatin (Lipitor) was added to the HFD (0.16% w/w) to Group #4 and Group #5. Lactulose (3 g/kg/day, in water solution) was orally administered every 12 hours to Group #3 and Group #5. The LDLR-KO mice were fed for three months with a normal or western diet, with or without lactulose, and with or without atorvastatin.

LDLR-KO mice [5] = experiment: Serum lipids and Ox-LDL in LDLR-KO mice on western diet (Example 4); assay type: in vivo; details: LDLR-KO mice at 1.5 months and 3 months; FIGS. 10A and 10B
Description: as §1, with “atorvastatin. Analysis of serum samples: Lipids, including LDL and HDL, as well as oxidized low density lipoprotein (Ox-LDL) present in serum was measured using an ELISA kit (Cell biolabs).” for “atorvastatin.”

[6] = system: Substance P and nerve growth factor (NGF); experiment: Pain associated factors (Substance P, NGF) in mice with pregabalin; assay type: in vivo; details: hydrogen generated by lactulose
[7] = system: patients suffering from minimal hepatic encephalopathy (MHE); details: compared to placebo or no intervention; cited from earlier work
rats = details: cited from earlier work

Inulin
amount of H2 [1]: elevates

hydrogen
production of dimethyl sulfide (DMS) (F. nucleatum; F. nucleatum cultured with H2): elevated production
Hydrogen sulfide (H2S) concentration (F. nucleatum; F. nucleatum incubated in H2 or N2 condition for 4 hours): tends to be reduced

OC[C@H]1O[C@@H](O[C@@H]2[C@@H](CO)OC(O)(CO)[C@H]2O)[C@H](O)[C@@H](O)[C@H]1O (mixture of isomers) [lactulose]
amount of HDL (good cholesterol) (LDLR knockout mice [2]; LDLR-KO mice, high fat diet 12 weeks, atorvastatin 20 mg/kg day in diet, lactulose 400 mg/day oral gavage, FIG. 8A): didn't change
LDL (bad cholesterol) levels (LDLR knockout mice [2]; LDLR-KO mice, high fat diet 12 weeks, atorvastatin 20 mg/kg day in diet, lactulose 400 mg/day oral gavage, FIG. 8B): no effects; also recorded: did not change
blood Ox-LDL caused by a fat diet (LDLR knockout mice [2]; lactulose by itself, previously found): can suppress
fatty liver development (LDLR knockout mice [3]): remarkable preventative effects
weight increase (LDLR-KO mice [4]): moderate weight increase; also recorded: suppress weight gain
amount of Ox-LDL in serum (LDLR-KO mice [5]): able to suppress
pregabalin-mediated suppression of pain associated factors (Substance P and nerve growth factor (NGF)) [6]: additive effect
blood ammonia levels [7]: reduced
health-related quality of life [7]: improved
progression to overt hepatic encephalopathy [7]: prevented
risk of no improvement in neuropsychological tests [7]: reduced
incidence of MHE (rats): decreased
latency of BAEP (rats): normalized
level of hyper-endotoxemia (rats): significantly lowered
level of hyperammonemia (rats): significantly lowered
